Measured values: ChEMBL document CHEMBL1201862, “PubChem BioAssay data set” (2004)
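Exposure lasted 48 hours, with cells grown in 96-well plates and compounds tested at five concentrations. Here, GI50 denotes the concentration required for 50% inhibition of growth.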 The source made the active and inactive calls. Cut-off read from the data, not from the text of the source: active = GI50 up to about 1.1 µM and inactive = higher.

Columns and labels:
Experiment in all cases: NCI-60 cell line screen, 48 h
SF-539 = tested on: SF-539
PC-3 = tested on: PC-3
A549 = tested on: A549
MCF7 = tested on: MCF7
T47D = tested on: T47D
SF-268 = tested on: SF-268
SNB-75 = tested on: SNB-75
SN12C = tested on: SN12C
CAKI-1 = tested on: CAKI-1
NCI/ADR-RES = tested on: NCI/ADR-RES
NCI-H226 = tested on: NCI-H226
HCT-15 = tested on: HCT-15
U-251 = tested on: U-251
DU-145 = tested on: DU-145
HT-29 = tested on: HT-29
SR = tested on: SR
MDA-MB-231 = tested on: MDA-MB-231
786-0 = tested on: 786-0
Malme-3M = tested on: Malme-3M
UO-31 = tested on: UO-31

`CC(CO)(CO)N1C(=O)C2C3c4ccccc4C(c4ccccc43)C2C1=O` (stereo not given) was tested, and the GI50 (SF-539) was > 100 µM (inactive), the GI50 (PC-3) was > 100 µM (inactive) and the GI50 (A549) was > 100 µM (inactive). The GI50 (MCF7) was > 100 µM (inactive), the GI50 (T47D) was > 100 µM (inactive) and the GI50 (SF-268) was > 100 µM (inactive). The GI50 (SNB-75) was 25.4 µM (inactive), the GI50 (SN12C) was > 100 µM (inactive) and the GI50 (CAKI-1) was > 100 µM (inactive). The GI50 (NCI/ADR-RES) was > 100 µM (inactive), the GI50 (NCI-H226) was > 100 µM (inactive) and the GI50 (HCT-15) was over 100 µM. The GI50 (U-251) was > 100 µM (inactive), the GI50 (DU-145) was 50.4 µM (inactive) and the GI50 (HT-29) was > 100 µM (inactive). For the same compound, the GI50 (SR) was > 100 µM (inactive), the GI50 (MDA-MB-231) was 45.8 µM (inactive) and the GI50 (786-0) was > 100 µM (inactive). For the same compound, the GI50 (Malme-3M) was > 100 µM (inactive) and the GI50 (UO-31) was 65.2 µM (inactive).

In the case of `O=[N+]([O-])c1ccc(N/N=C/c2ccc(OCCCCCCCCCCCO)cc2)c([N+](=O)[O-])c1`, the GI50 (SF-539) is reported as 1.97 µM (inactive), the GI50 (PC-3) is reported as 2.45 µM (inactive) and the GI50 (A549) is reported as 5.96 µM (inactive). The GI50 (MCF7) was 6.05 µM (inactive), the GI50 (T47D) was 5.22 µM (inactive) and the GI50 (SF-268) was 2.84 µM (inactive). For the same compound, the GI50 (SNB-75) was 1.94 µM (inactive), the GI50 (SN12C) was 3.24 µM (inactive) and the GI50 (CAKI-1) was 3.34 µM (inactive). For the same compound, the GI50 (NCI/ADR-RES) was 2.73 µM (inactive), the GI50 (NCI-H226) was 6.37 µM (inactive) and the GI50 (HCT-15) was 9.12 µM. The GI50 (U-251) was 2.37 µM (inactive), the GI50 (DU-145) was 19.7 µM (inactive) and the GI50 (HT-29) was 1.48 µM (inactive). For the same compound, the GI50 (SR) was 2.5 µM (inactive), the GI50 (MDA-MB-231) was 35.2 µM (inactive) and the GI50 (786-0) was 1.91 µM (inactive). For the same compound, the GI50 (Malme-3M) was 1.72 µM (inactive) and the GI50 (UO-31) was 7.35 µM (inactive).

With `COc1cc(CNc2nc3ccccc3nc2C(=O)O)cc(OC)c1OC` the GI50 (SF-539) was > 100 µM (inactive), the GI50 (PC-3) was > 100 µM (inactive) and the GI50 (A549) was > 100 µM (inactive). The GI50 (MCF7) was 81.1 µM (inactive), the GI50 (T47D) was > 100 µM (inactive) and the GI50 (SF-268) was > 100 µM (inactive). For the same compound, the GI50 (SNB-75) was 76.7 µM (inactive), the GI50 (SN12C) was 83 µM (inactive) and the GI50 (CAKI-1) was > 100 µM (inactive). For the same compound, the GI50 (NCI/ADR-RES) was > 100 µM (inactive), the GI50 (NCI-H226) was > 100 µM (inactive) and the GI50 (HCT-15) was over 100 µM. The GI50 (U-251) was > 100 µM (inactive), the GI50 (DU-145) was > 100 µM (inactive) and the GI50 (HT-29) was > 100 µM (inactive). For the same compound, the GI50 (SR) was 99.1 µM (inactive), the GI50 (MDA-MB-231) was > 100 µM (inactive) and the GI50 (786-0) was > 100 µM (inactive). For the same compound, the GI50 (Malme-3M) was > 100 µM (inactive) and the GI50 (UO-31) was 49.2 µM (inactive).

For `CNC1C(O)CC(OC2C/C=C(\C)C/C(C)=C/C=C/CCC(C)CNC(=O)/C=C/C=C/C2C)OC1C` (stereo not given), the GI50 (SF-539) was 0.918 µM (active), the GI50 (PC-3) was 1.06 µM (active) and the GI50 (A549) was 0.504 µM (active). For the same compound, the GI50 (MCF7) was 0.782 µM (active), the GI50 (T47D) was 0.783 µM (active) and the GI50 (SF-268) was 0.746 µM (active). The GI50 (SNB-75) was 0.711 µM (active), the GI50 (SN12C) was 0.82 µM (active) and the GI50 (CAKI-1) was 0.877 µM (active). For the same compound, the GI50 (NCI/ADR-RES) was 0.718 µM (active), the GI50 (NCI-H226) was 2.77 µM (inactive) and the GI50 (HCT-15) was 0.202 µM. The GI50 (U-251) was 0.521 µM (active), the GI50 (DU-145) was 0.719 µM (active) and the GI50 (HT-29) was 0.224 µM (active). The GI50 (SR) was 0.24 µM (active), the GI50 (MDA-MB-231) was 0.841 µM (active) and the GI50 (786-0) was 0.245 µM (active). The GI50 (Malme-3M) was 1.47 µM (inactive) and the GI50 (UO-31) was 2.85 µM (inactive).

In the case of `COc1cc2c(OC)c(c1)CCCC1=CC(=O)C=C(CCC2)C1=O`, the GI50 (SF-539) is reported as 35.6 µM (inactive), the GI50 (PC-3) is reported as 28.6 µM (inactive) and the GI50 (A549) is reported as 58.7 µM (inactive). For the same compound, the GI50 (MCF7) was 39 µM (inactive), the GI50 (T47D) was 23.2 µM (inactive) and the GI50 (SF-268) was 37.8 µM (inactive). For the same compound, the GI50 (SNB-75) was > 60.3 µM (inactive), the GI50 (SN12C) was 20.8 µM (inactive) and the GI50 (CAKI-1) was > 100 µM (inactive). For the same compound, the GI50 (NCI/ADR-RES) was 32 µM (inactive), the GI50 (NCI-H226) was > 100 µM (inactive) and the GI50 (HCT-15) was 33.6 µM. For the same compound, the GI50 (U-251) was 40.1 µM (inactive), the GI50 (DU-145) was > 68.4 µM (inactive) and the GI50 (HT-29) was 44.9 µM (inactive). For the same compound, the GI50 (SR) was 3.54 µM (inactive), the GI50 (MDA-MB-231) was 25.5 µM (inactive) and the GI50 (786-0) was 29 µM (inactive). The GI50 (Malme-3M) was 10.4 µM (inactive) and the GI50 (UO-31) was 43.9 µM (inactive).

`CC(CCCC1SCC2NC(=O)NC21)C(=O)O` (stereo not given) was tested, and the GI50 (SF-539) was > 100 µM (inactive), the GI50 (PC-3) was > 100 µM (inactive) and the GI50 (A549) was > 100 µM (inactive). For the same compound, the GI50 (MCF7) was > 100 µM (inactive), the GI50 (T47D) was > 100 µM (inactive) and the GI50 (SF-268) was > 100 µM (inactive). For the same compound, the GI50 (SNB-75) was > 100 µM (inactive), the GI50 (SN12C) was > 100 µM (inactive) and the GI50 (CAKI-1) was > 100 µM (inactive). For the same compound, the GI50 (NCI/ADR-RES) was > 100 µM (inactive), the GI50 (NCI-H226) was > 100 µM (inactive) and the GI50 (HCT-15) was over 100 µM. For the same compound, the GI50 (U-251) was > 100 µM (inactive), the GI50 (DU-145) was > 100 µM (inactive) and the GI50 (HT-29) was > 100 µM (inactive). For the same compound, the GI50 (SR) was > 100 µM (inactive), the GI50 (MDA-MB-231) was > 100 µM (inactive) and the GI50 (786-0) was > 100 µM (inactive). For the same compound, the GI50 (Malme-3M) was > 100 µM (inactive) and the GI50 (UO-31) was > 100 µM (inactive).
